Assay results taken from the Kinase Knowledgebase extract (Sharma et al. 2016).

target: MAPK14;MAPK11;MAPK12 (human) (UniProt Q16539); assay: Inhibition of p38 Kinase Activity

Compound	IC50 [nM]
Cc1ccc(C(N)=O)cc1Nc1nc(N[C@H]2CCN(Cc3ccc(F)cc3)C2)nc(N(C)CC(C)C)n1	< 1000
Cc1ccc(C(N)=O)cc1Nc1nc(N[C@@H]2CCN(C(C)C)C2)nc(N(C)CC(C)(C)C)n1	< 1000
CC(C)C(=O)N(C)CCCN(C)c1nc(NCC(C)c2ccccc2)nc(Nc2ccc3ncsc3c2)n1 (centres undefined)	< 10000
Cc1ccc(C(=O)NCc2ccccc2)cc1Nc1nc(N[C@H]2CCNC2)nc(N(C)CC(C)(C)C)n1	< 1000
Cc1ccc(C(N)=O)cc1Nc1nc(N[C@@H]2CCN(C(C)CC(C)C)C2)nc(N(C)CC(C)(C)C)n1 (some centres undefined)	< 1000
Cc1ccc(C(N)=O)cc1Nc1nc(NC[C@H]2CCCN2)nc(N(C)CC(C)(C)C)n1	< 1000
Cc1ccc(C(N)=O)cc1Nc1nc(N[C@@H]2CCCC[C@@H]2N)nc(N(C)CC(C)(C)C)n1	< 1000
Cc1ccc(C(N)=O)cc1Nc1nc(N[C@H]2CCN(C(C)c3ccccn3)C2)nc(N(C)CC(C)C)n1 (some centres undefined)	< 1000
Cc1ccc(C(N)=O)cc1Nc1nc(N[C@H]2CCN(Cc3cccc4c3OCO4)C2)nc(N(C)CC(C)C)n1	< 1000
CC(CNc1nc(N)nc(Nc2ccc3ncsc3c2)n1)c1ccccc1 (centres undefined)	< 10000
CC(CNc1nc(Nc2ccc3ncsc3c2)nc(N(C)CCCN(C)C(=O)C2CCOC2)n1)c1ccccc1 (centres undefined)	< 10000
Cc1ccccc1CN1CC[C@H](Nc2nc(Nc3cc(C(N)=O)ccc3C)nc(N(C)CC(C)C)n2)C1	< 1000
CN(CCN(C)c1nc(NCc2ccc(F)cc2F)nc(-n2cnc3ccccc32)n1)C(=O)CCC(=O)O	< 10000
COc1ccccc1NC(=O)c1ccc(C)c(Nc2nc(N[C@H]3CCNC3)nc(N(C)CC(C)(C)C)n2)c1	< 1000
NC(=O)CNc1nc(NCCc2ccccc2)nc(Nc2ccc3ncsc3c2)n1	< 10000
Cc1ccc(C(N)=O)cc1Nc1nc(N[C@H]2CCNC2)nc(N(C)CC2CCCC2)n1	< 1000
CC(CNc1nc(Nc2ccc3ncsc3c2)nc(N2CC3CC2CN3C(=O)Cc2ccc(Cl)c(Cl)c2)n1)c1ccccc1 (centres undefined)	< 10000
Cc1ccc(N)cc1Nc1nc(N[C@H]2CCNC2)nc(N(C)CC(C)(C)C)n1	< 1000
CNC(=O)c1ccc(C)c(Nc2nc(N[C@H]3CCNC3)nc(SCC(C)C)n2)c1	< 1000
Cc1ccc(C(N)=O)cc1Nc1nc(NC2CCN(CCc3ccccc3)C2)nc(N(C)CC(C)C)n1 (centres undefined)	< 1000
CNCCN(C)c1nc(NC[C@@H]2CC[C@H]3C[C@@H]2C3(C)C)nc(Nc2ccc3ncsc3c2)n1	< 10000
Cc1ccc(-c2n[nH]c(=O)[nH]2)cc1Nc1nc(N(C)CC(C)(C)C)nc(N2CCCN(C)CC2)n1	< 1000
Cc1ccc(C(N)=O)cc1Nc1nc(NC(C)C2CCCCC2)nc(N2CCNCC2)n1 (centres undefined)	< 1000

Compound	IC50 [nM]
CONC(=O)c1ccc(C)c(Nc2nc(N(C)CC(C)(C)C)nc(N3CCN(C)CC3)n2)c1	< 1000
Cc1ccc(CN2CCC(Nc3nc(Nc4cc(C(N)=O)ccc4C)nc(N(C)CC(C)C)n3)C2)c(C)c1 (centres undefined)	< 1000
Cc1ccc(C(N)=O)cc1Nc1nc(N[C@H]2CCN(Cc3ccc(O)cc3)C2)nc(N(C)CC(C)C)n1	< 1000
CCNC(=O)N1CCN(c2nc(NCC(C)c3ccccc3)nc(Nc3ccc4ncsc4c3)n2)CC1 (centres undefined)	< 10000
OC(CNc1nc(Cl)nc(Nc2ccc3ncsc3c2)n1)c1ccccc1 (centres undefined)	< 10000
Cc1ccc(C(=O)Nc2cccc(F)c2)cc1Nc1nc(N[C@H]2CCNC2)nc(N(C)CC(C)(C)C)n1	< 1000
Cc1ccc(C(N)=O)cc1Nc1nc(NCC2CCCC2)nc(N[C@H]2CCNC2)n1	< 1000
CNCCN(C)c1nc(NC[C@H](C)c2ccccc2)nc(Nc2ccc3ncsc3c2)n1	< 10000
Cc1ccc(C(N)=O)cc1Nc1nc(N[C@H]2CCN(Cc3ccc(C(C)C)cc3)C2)nc(N(C)CC(C)C)n1	< 1000
Cc1ccc(C(N)=O)cc1Nc1nc(NC2CCN(C(C)C)CC2)nc(N(C)CC(C)(C)C)n1	< 1000
CC(CNc1nc(Nc2ccc3ncsc3c2)nc(N2CCN(C(=O)c3ccccc3)CC2)n1)c1ccccc1 (centres undefined)	< 10000
CC(CNc1nc(Nc2ccc3ncsc3c2)nc(N2CCCCC2)n1)c1ccccc1 (centres undefined)	< 10000
CNc1nc(Nc2ccc3ncsc3c2)nc(N[C@H](C)C2CCCCC2)n1	< 10000
CC(CNc1nc(Nc2ccc3ncsc3c2)nc(N(C)CCCN(C)C(=O)c2ccccc2)n1)c1ccccc1 (centres undefined)	< 10000
Cc1ccc(C(=O)Nc2ccccn2)cc1Nc1nc(N[C@H]2CCNC2)nc(N(C)CC(C)C)n1	< 1000
CCONC(=O)c1ccc(C)c(Nc2nc(N(C)CC(C)(C)C)cc(N3CCCN(C)CC3)n2)c1	< 1000
COCC(=O)N1CC2CC1CN2c1nc(NCC(C)c2ccccc2)nc(Nc2ccc3ncsc3c2)n1 (centres undefined)	< 10000
CC(CNc1nc(Nc2ccc3ncsc3c2)nc(N(C)C)n1)c1ccccc1 (centres undefined)	< 10000
Cc1ccc(-c2ncc[nH]2)cc1Nc1nc(N(C)CC(C)(C)C)nc(N2CCCN(C)CC2)n1	< 1000
Cc1c(Nc2nc(NC[C@@H]3CC[C@H]4C[C@H]3C4(C)C)nc(N(C)CC(C)C)n2)cccc1C(N)=O	< 1000
Cc1ccc(C(N)=O)cc1Nc1nc(N[C@H]2CCCC[C@H]2O)nc(N(C)CC(C)C)n1	< 1000
CNC(=O)c1ccc(C)c(Nc2nc(NC[C@H]3CCCN3)nc(N(C)CC(C)(C)C)n2)c1	< 1000
Cc1ccc(C(N)=O)cc1Nc1nc(NCC23CC4CC(CC(C4)C2)C3)nc(N[C@H]2CCNC2)n1	< 1000

Compound	IC50 [nM]
CCONC(=O)c1ccc(C)c(Nc2nc(NCCO)nc(N(C)CC(C)(C)C)n2)c1	< 1000
Cc1ccc(C(N)=O)cc1Nc1nc(N[C@@H]2CCN(C(C)C(F)(F)F)C2)nc(N(C)CC(C)(C)C)n1 (some centres undefined)	< 1000
CC(CNc1nc(Cl)nc(Nc2ccc3ncsc3c2)n1)c1ccc(Cl)cc1 (centres undefined)	< 10000
Cc1ccc(C(=O)NC2CCCC2)cc1Nc1nc(N[C@H]2CCNC2)nc(N(C)CC(C)(C)C)n1	< 1000
CONC(=O)c1ccc(C)c(Oc2nc(N(C)CC(C)(C)C)nc(N3CCCN(C)CC3)n2)c1	< 30000
Cc1ccc(C(N)=O)cc1Nc1nc(N[C@H]2CCN(C3CCCC3)C2)nc(N(C)CC(C)C)n1	< 1000
Cc1ccc(C(N)=O)cc1Nc1nc(NCCc2ccc3c(c2)OCO3)nc(N[C@H]2CCNC2)n1	< 1000
Cc1cccc(CN2CC[C@H](Nc3nc(Nc4cc(C(N)=O)ccc4C)nc(N(C)CC(C)C)n3)C2)n1	< 1000
CONC(=O)c1ccc(C)c(Nc2nc(NCCCN3CCCC3)nc(N(C)CC(C)(C)C)n2)c1	< 1000
CONC(=O)c1ccc(C)c(Nc2nc(N[C@H]3CCNC3)nc(N(C)CC(C)(C)C)n2)c1	< 1000
CNC(=O)c1ccc(C)c(Nc2nc(O[C@H]3CCNC3)nc(N(C)CC(C)(C)C)n2)c1	< 1000
CC1(C)[C@H]2CC[C@@H](CNc3nc(Nc4ccc5ncsc5c4)nc(N4CCNCC4)n3)[C@@H]1C2	< 10000
Cc1ccc(C(=O)Nc2cccc(N(C)C)c2)cc1Nc1nc(N[C@H]2CCNC2)nc(N(C)CC(C)C)n1	< 1000
Cc1ccc(C(N)=O)cc1Nc1nc(NCCc2ccc(Cl)cc2)nc(N[C@H]2CCNC2)n1	< 1000
CC(CNc1nc(Nc2ccc3ncsc3c2)nc(N(C)CCCN(C)C(=O)c2ccco2)n1)c1ccccc1 (centres undefined)	< 10000
CC(Cc1ccccc1)Nc1nc(Nc2ccc3ncsc3c2)nc(N(C)C)n1 (centres undefined)	< 10000
Cc1ccc(C(=O)NCCc2ccccc2)cc1Nc1nc(N[C@H]2CCNC2)nc(N(C)CC(C)(C)C)n1	< 1000
Cc1ccc(C(N)=O)cc1Nc1nc(O)nc(N[C@H]2CCNC2)n1	< 1000
COc1ccc(C(=O)N2CCN(c3nc(NCC(C)c4ccccc4)nc(Nc4ccc5ncsc5c4)n3)CC2)cc1 (centres undefined)	< 10000
CCC[C@@H]1C[C@@H](Nc2nc(Nc3cc(C(N)=O)ccc3C)nc(N(C)CC(C)(C)C)n2)CN1	< 1000
Cc1ccc(Nc2nc(NC[C@@H]3CC[C@H]4C[C@@H]3C4(C)C)nc(N3CCCNCC3)n2)cc1C(N)=O	< 10000
Cc1ccc(C(N)=O)cc1Nc1nc(N[C@H]2CN[C@@H](C)C2)nc(N(C)CC(C)(C)C)n1	< 1000
CNCCN(C)c1nc(NCc2ccc(F)cc2F)nc(-n2cnc3ccccc32)n1	< 10000

Compound	IC50 [nM]
Cc1ccc(C(N)=O)cc1Nc1nc(NC2CCS(=O)(=O)C2)nc(N(C)CC(C)(C)C)n1 (centres undefined)	< 1000
CC1(C)[C@H]2CCC(CNc3nc(Cl)nc(Nc4ccc(S(=O)(=O)Nc5ncccn5)cc4)n3)[C@@H]1C2 (some centres undefined)	< 10000
CN(CC1CCC2CC1C2(C)C)c1nc(Nc2ccc3ncsc3c2)nc(N2CCN(C(=O)OC(C)(C)C)CC2)n1 (centres undefined)	< 10000
Cc1ccc(C(N)=O)cc1Nc1nc(N[C@H]2CCNC2)nc(N(C)CC(C)c2ccc(Cl)cc2)n1 (some centres undefined)	< 1000
Cc1ccc(C(N)=O)cc1Nc1nc(N[C@H]2CCN(C(C#N)c3ccccc3)C2)nc(N(C)CC(C)(C)C)n1 (some centres undefined)	< 1000
Cc1ccc(C(N)=O)cc1Nc1nc(NCC2(C)CCCC2)nc(N[C@H]2CCNC2)n1	< 1000
CNC(=O)c1ccc(C)c(Nc2nc(NC3CNC3)nc(N(C)CC(C)(C)C)n2)c1	< 1000
Cc1ccc(C(N)=O)cc1Nc1nc(NCC23CC4CC(CC(C4)C2)C3)nc(N[C@@H]2CCNC2)n1	< 1000
NC(=O)CNc1nc(Nc2ccc3ncsc3c2)nc(NC2CCc3ccccc32)n1 (centres undefined)	< 10000
Cc1ccc(C(=O)NC2CCCCC2)cc1Nc1nc(N[C@H]2CCNC2)nc(N(C)CC(C)(C)C)n1	< 1000
CNC(=O)c1ccc(C)c(Oc2nc(N(C)CC(C)(C)C)nc(N3CCCN(C)CC3)n2)c1	< 30000
CONC(=O)c1ccc(F)c(Sc2nc(N(C)CC(C)(C)C)nc(N3CCCN(C)CC3)n2)c1	< 30000
Cc1ccc(-c2nc3ccccc3[nH]2)cc1Nc1nc(N[C@@H]2CCNC2)nc(N(C)CC(C)(C)C)n1	< 1000
CCONC(=O)c1ccc(C)c(Nc2nc(NC3CCS(=O)(=O)C3)nc(N(C)CC(C)(C)C)n2)c1 (centres undefined)	< 1000
CCC(C)N1CC[C@@H](Nc2nc(Nc3cc(C(N)=O)ccc3C)nc(N(C)CC(C)C)n2)C1 (some centres undefined)	< 1000
COC(=O)c1ccc(C)c(Nc2nc(N[C@H]3CCNC3)nc(N(C)CC(C)(C)C)n2)c1	< 1000
Cc1ccc(C(N)=O)cc1Nc1nc(N[C@H]2CCN(C(C)C#N)C2)nc(N(C)CC(C)C)n1 (some centres undefined)	< 1000
Cc1ccc(C(N)=O)cc1Nc1nc(NCC2(c3ccccc3)CC2)nc(N[C@H]2CCNC2)n1	< 1000
Cc1ccc(C(N)=O)cc1Nc1nc(O[C@H]2CCNC2)nc(N(C)CC(C)(C)C)n1	< 1000
Cc1ccc(C(N)=O)cc1Nc1nc(N[C@H]2CCN(C(C)(C)C)C2)nc(N(C)CC(C)(C)C)n1	< 1000
